# Measured values published in patent US20160024414A1, “IONIC LIQUIDS AS L[…] BASE STOCKS, COBASE STOCKS AND MULTI[…]” ([…] AND ENGINEERING COMPANY, priority 2012, published 2016).
# Assays:
# [1] = Kinematic viscosity (ASTM D-445); type: physicochemical
# Method: The kinematic viscosity (Kv) of the ionic liquid products of Examples 2-5, 7 and 8 was measured using ASTM standards D-445 and reported at temperatures of 100° C. (Kv at 100° C.) or 40° C. (Kv at 40° C.). The viscosity index (VI) was measured according to ASTM standard D-2270 using the measured kinematic viscosities for each product.
substance,measurement,setting,value
1-butyl-3-hexylimidazolium bis(2-ethylhexyl) phosphate [Example 7],solubility in AN (alkylated naphthalene),solvent: AN (alkylated naphthalene),5%
dihexadecyldimethylammonium bis(2-ethylhexyl) phosphate [Example 8],solubility in PAO4 (in words),solvent: PAO4,soluble
tetradecylammonium bis(2-ethylhexyl) phosphate [Example 4],Kv100 (kinematic viscosity at 100° C.),[1],> 150 cSt
